According to publication PMC12348470, “Amino Acid Substitutions in Bacteriocin Lactolisterin BU Reveal Functional Domains Involved in Biological Activity Against Staphylococcus aureus” (Molecules, 2025):
Values joined by “and” are separate entries in the source; they are usually repeats but may differ in a detail not shown here. Identical values can stand only once. Like-named read-outs stand apart in the source and are kept apart here. Ends that are not written are not given here.

What was measured:
Conditions in all cases: half MIC, 16–18 h, 37 °C, normalised to gmk, duplicate
[1] = tested on: spa
Description: (§1) Six virulence-related genes were selected (agrA, clfA, icaR, lukSPV, spa, and hla) to capture a representative profile of quorum sensing regulation (agrA), adhesion (clfA), biofilm repression (icaR), immune evasion (spa), and cytolytic toxin production (lukSPV and hla), providing an exploratory view of how peptide treatment influences the distinct profile of S. aureus pathogenicity.
(§2) The effect of sub-inhibitory peptide concentrations on S. aureus ATCC 25923 virulence gene expression was evaluated using quantitative real-time PCR (RT-qPCR). […] Untreated bacterial cultures in corresponding media served as controls.
(§3) Total RNA was extracted using the RNeasy Mini Kit (QIAGEN GmbH, Hilden, Germany). Samples were treated with Dnase I (Thermo Fisher Scientific) to remove genomic DNA contamination. RNA concentration and purity were determined using a NanoDrop spectrophotometer (A260/A280 ratio 1.9–2.1).
(§4) Complementary DNA (cDNA) synthesis was performed using […] of total RNA and the RevertAid RT Reverse Transcription Kit (Thermo Fisher Scientific) with random hexamer primers, according to the manufacturer’s instructions. Quantitative PCR was performed using FastGen 2x IC Green qPCR Universal (Nippon Genetics) on a LineGene 9600 Plus Real Time thermocycler (Bioer Technology Co., Ltd., Hangzhou, China). Primer sequences (Table S3) for the virulence-related genes agrA, clfA, hla, icaR, lukS-PV, and spa were used. The housekeeping gene gmk (guanylate kinase) was used for normalization.
(§5) Primer efficiency (90–110%) and specificity were confirmed by melt curve analysis. Relative expression levels were calculated using the ΔΔCt method, as reported by Livak et Schmittgen, comparing treated samples to their corresponding untreated controls in each medium. A log2 fold change ≥1 or ≤−1 was considered biologically significant. All experiments were performed in duplicate.

[2] = tested on: clfA
Description: as §1, §2, §3, §4, §5

[3] = tested on: agrA
Description: as §1, §2, §3, §4, §5

Sequence | spa expression, log2 fold-change vs untreated control ([1]; FBS) | spa expression, log2 fold-change vs untreated control ([1]; LB medium) | clfA expression, log2 fold-change vs untreated control ([2]; FBS) | clfA expression, log2 fold-change vs untreated control ([2]; LB medium) | agrA expression, log2 fold-change vs untreated control ([3]; FBS) | agrA expression, log2 fold-change vs untreated control ([3]; LB medium)
MWGRILGTVAKYAPKAVSWAWQHKWELINMGDLAFRYIQRIWG [Peptide G13A] | 1.69 log2 fold change | -0.32 log2 fold change and −0.33 log2 fold change | 0.64 log2 fold change | -0.19 log2 fold change | 0.82 log2 fold change | -0.40 log2 fold change
MWGRILATVAKYGPKAVSWAWQHKWELINMGDLAFRYIQRIWG [Peptide G7A] | -0.27 log2 fold change | 0.37 log2 fold change | -0.69 log2 fold change | -0.59 log2 fold change | 0.61 log2 fold change | -0.32 log2 fold change
MWARILGTVAKYGPKAVSWAWQHKWELINMGDLAFRYIQRIWG [Peptide G3A] | 1.43 log2 fold change | 2.16 log2 fold change | -1.55 log2 fold change | 0.76 log2 fold change | -0.47 log2 fold change | -0.93 log2 fold change
